Drawing on PubChem BioAssay (NCI), this text covers GI50 and TGI for eight molecules.

Some test systems named below: NCI-H522 lung; LOX IMVI melanoma; CAKI-1 renal; HCC-2998 colon; KM12 colon; TK-10 renal; MOLT-4 leukemia; DU-145 prostate; ACHN renal; M14 melanoma.
Common to all, as to experiment: NCI anticancer screen, dose series, 48 h

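In this assay, cells in 96-well plates receive the compound at five concentrations for 48 hours. Endpoints are linearly interpolated between the surrounding concentrations. The concentration for 50% growth inhibition is given as GI50. TGI is the concentration that stops growth completely.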 A value given as a limit tells only on which side of the number the result lay.

`Cc1ccc2c(Nc3cccc(Cl)c3F)ncc(NC(=O)c3csc4c(N)ncnc34)c2c1`: the GI50 is greater than 100 µM with NCI-H522 lung; 0.0743 µM with LOX IMVI melanoma; 0.734 µM in the assay with CAKI-1 renal; 0.281 µM in the assay on HCC-2998 colon; greater than 20.7 µM with KM12 colon; greater than 100 µM in the assay on TK-10 renal. Also, the GI50 in the assay with MOLT-4 leukemia was greater than 100 µM; in the assay on DU-145 prostate, greater than 100 µM; in the assay on ACHN renal it was greater than 100 µM; in the assay with M14 melanoma it was 0.0351 µM. Also, the TGI in the assay with NCI-H522 lung, with LOX IMVI melanoma, in the assay with CAKI-1 renal, in the assay on HCC-2998 colon, in the assay with KM12 colon and in the assay on TK-10 renal was greater than 100 µM throughout. In addition, the TGI in the assay with MOLT-4 leukemia is greater than 100 µM; with DU-145 prostate it was greater than 100 µM; in the assay on ACHN renal it was greater than 100 µM; in the assay with M14 melanoma, 0.608 µM.
For `Cc1cccc(NC(=O)CCl)c1`, the TGI in the assay with NCI-H522 lung was 4.32 µM; with LOX IMVI melanoma, greater than 10 µM; with CAKI-1 renal, greater than 10 µM; in the assay on HCC-2998 colon, greater than 10 µM; in the assay on KM12 colon, greater than 10 µM; with TK-10 renal it was greater than 10 µM. Moreover, the TGI in the assay on MOLT-4 leukemia, in the assay on DU-145 prostate, with ACHN renal and with M14 melanoma was greater than 10 µM in each case.
`CN1CCN(Cc2ccc(NC(=O)c3nc4ccc5[nH]ncc5c4c4c3CCC4)cc2C(F)(F)F)CC1`: the GI50 in the assay on NCI-H522 lung is 0.981 µM; in the assay with LOX IMVI melanoma, 0.832 µM; in the assay on CAKI-1 renal, 0.815 µM; in the assay on HCC-2998 colon it was 0.83 µM; with KM12 colon, 0.957 µM; with TK-10 renal it was 0.884 µM. The GI50 with MOLT-4 leukemia was 1.1 µM; in the assay with DU-145 prostate, 0.944 µM; in the assay with ACHN renal it was 0.861 µM; in the assay on M14 melanoma, 0.934 µM. Further, the TGI amounted to 2.31 µM in the assay on NCI-H522 lung; 1.54 µM in the assay with LOX IMVI melanoma; 1.56 µM in the assay on CAKI-1 renal; 1.65 µM in the assay with HCC-2998 colon; 1.91 µM in the assay on KM12 colon; 1.65 µM in the assay with TK-10 renal. Besides, the TGI in the assay with MOLT-4 leukemia is 2.58 µM; with DU-145 prostate, 1.76 µM; in the assay on ACHN renal, 1.55 µM; with M14 melanoma it was 1.76 µM.
Consider `COc1cc2nc(N3CCCC3)nc(Nc3ccccc3)c2cc1OC`, for which the GI50 in the assay with NCI-H522 lung is 1.89 µM; in the assay on LOX IMVI melanoma, 0.201 µM; with CAKI-1 renal it was 1.45 µM; with HCC-2998 colon, 1.9 µM; with KM12 colon, 1.74 µM; in the assay on TK-10 renal, 1.88 µM. Besides, the GI50 is 1.54 µM in the assay with MOLT-4 leukemia, 1.62 µM with DU-145 prostate, 1.38 µM in the assay with ACHN renal and 1.83 µM in the assay on M14 melanoma. The TGI in the assay with NCI-H522 lung came out at 3.96 µM; with LOX IMVI melanoma, 0.479 µM; in the assay on CAKI-1 renal it was 2.8 µM; in the assay with HCC-2998 colon, 3.65 µM; with KM12 colon, 3.32 µM; in the assay on TK-10 renal, 3.37 µM. The TGI worked out at 4.33 µM in the assay on MOLT-4 leukemia, 3.07 µM with DU-145 prostate, 2.67 µM in the assay with ACHN renal and 3.56 µM in the assay on M14 melanoma.
As to `CC1(O)CC2(O)C=CC3=C(C(=O)c4cccc(O)c4C3=O)C2(O)C(=O)C1O` (centres undefined), the TGI in the assay on NCI-H522 lung worked out at 0.29 µM; in the assay with LOX IMVI melanoma, 3.37 µM; with CAKI-1 renal, 2.24 µM; in the assay on HCC-2998 colon, 7.54 µM; in the assay on KM12 colon, 17.8 µM; in the assay with TK-10 renal, 3.12 µM. Also, the TGI in the assay on MOLT-4 leukemia was determined as 2.8 µM; in the assay with DU-145 prostate, 32.3 µM; with ACHN renal, 3.1 µM; with M14 melanoma it was 2.74 µM.
In the case of `Cc1ccc(N=Nc2c(N)nn(-c3ccccc3)c2N)cc1`, the GI50 is 1 µM with NCI-H522 lung; 5.78 µM with LOX IMVI melanoma; 1.28 µM with CAKI-1 renal; 0.912 µM in the assay on HCC-2998 colon; 0.626 µM in the assay with KM12 colon; 1.07 µM with MOLT-4 leukemia. Also, the GI50 with DU-145 prostate is 3.44 µM; in the assay with ACHN renal, 11.6 µM; with M14 melanoma, 1.04 µM. The TGI is greater than 100 µM in the assay on NCI-H522 lung; greater than 100 µM in the assay on LOX IMVI melanoma; greater than 23.1 µM with CAKI-1 renal; greater than 100 µM in the assay with HCC-2998 colon; greater than 100 µM in the assay with KM12 colon; greater than 100 µM with TK-10 renal. Also, the TGI with MOLT-4 leukemia, in the assay on DU-145 prostate, in the assay with ACHN renal and with M14 melanoma was greater than 100 µM throughout.
On to `CC[N+]1(C)CCC(O)(c2ccccc2)C(C(=O)c2ccccc2)C1` (centres undefined), for which the TGI with NCI-H522 lung was 3.29 µM; in the assay with LOX IMVI melanoma, 36.8 µM; in the assay on CAKI-1 renal it was 7.51 µM; with HCC-2998 colon, 49.8 µM; in the assay on KM12 colon, 39.3 µM; in the assay with TK-10 renal, 31.4 µM. The TGI in the assay with MOLT-4 leukemia worked out at 11.3 µM; in the assay on DU-145 prostate, 44.6 µM; in the assay with ACHN renal, 23 µM; in the assay on M14 melanoma, 24.1 µM.
Consider `C=CC(=O)N1CCC([C@@H]2CCNc3c(C(N)=O)c(-c4ccc(Oc5ccccc5)cc4)nn32)CC1`, for which the GI50 in the assay on NCI-H522 lung was 3.06 µM; with LOX IMVI melanoma, 15.2 µM; in the assay with CAKI-1 renal it was 10.4 µM; in the assay on HCC-2998 colon, 14.2 µM; in the assay with KM12 colon, 31.5 µM; with TK-10 renal it was 0.385 µM. For the same molecule, the GI50 with MOLT-4 leukemia was 15.9 µM; in the assay on DU-145 prostate it was 6.82 µM; with ACHN renal it was 2.34 µM; in the assay on M14 melanoma, 14.4 µM. In addition, the TGI in the assay on NCI-H522 lung came to 20.3 µM; in the assay with LOX IMVI melanoma, 36.3 µM; with CAKI-1 renal it was 44.7 µM; with HCC-2998 colon it was 29.6 µM; with KM12 colon it was 98.9 µM; with TK-10 renal, 7.77 µM. For the same molecule, the TGI was greater than 93.6 µM in the assay on MOLT-4 leukemia, 61.3 µM with DU-145 prostate, greater than 62.6 µM in the assay with ACHN renal and 31.9 µM in the assay with M14 melanoma.
